# Results: patent US8658646B2, “Pyrrolopyrazine kinase inhibitors” (Hoffmann-LaRoche Inc., priority 2011, dated 2014)
# Like-named read-outs stand apart in the source and are kept apart here.
# Target: T1, recombinant human SYK360-635 (Homo sapiens, UniProt P43405)
# T1 construct: made in house
# Assay: Determination of IC50 of Spleen Tyrosine Kinase (SYK) inhibition, 33P ATP filtration assay
# Type: biochemical
# Details: SYK aa 360-635 0.5 nM, ATP 20 μM, peptide 5 μM, 0.1% BSA
# [1] = read-out: SYK_ENZYME_FILTRATION/v1, BSA
# Procedure: All concentrations were final in the reaction mixture and all incubations were carried at room temperature. […] SYK Assay Information Determination of IC50 of Spleen Tyrosine Kinase (SYK) Inhibition:
# SYK kinase assay is a standard kinase assay adapted to a 96 well plate format. This assay is performed in 96-well format for IC50 determination with 8 samples which represented 10 half log dilutions and a 40 μL reaction volume. The assay measures the incorporation of radiolabeled ^33P γATP into an N-terminally biotinylated peptide substrate, derived from naturally occurring phosphoacceptor consensus sequence (Biotin-11aa DY*E). […] Experimental Method:
# DMSO and the mixture was incubated for 10 min at RT.
# The kinase reaction was initiated by the addition of 10 μL 4× substrate cocktail containing the DYE peptide substrate [0 or 5 μM], ATP [20 μM] and ^33PγATP [2 μCi/r×n]. After incubation at 30° C. for 15 min, the reaction was terminated by the transfer of 25 μL pf the reaction sample to a 96 well 0.65 μm Millipore MADVNOB membrane/plate containing 200 μL 5 mM EDTA and 20% Streptavidine coated beads in PBS.
# The unbound radionucleotides were washed under vacuum with 3×250 μL 2M NaCl; 2×250 μL 2M NaCl+1% phosphoric acid; 1×250 μL H2O. After the last wash membrane/plates were transferred to an adaptor plate, heat dried for 15 min at 60° C., and 50 μL scintillation cocktail was added to each well and 4 h later the amount of radioactivity was counted in a top counter.
IC50 [1] [nM],"IC50 (SYK_ENZYME_FILTRATION/v1, BSA) [nM]",SMILES
17.9,–,"CN(C)C(=O)CCn1nc(-c2cnc3[nH]cc(C(=O)NC(C)(C)C)c3n2)c2cc(OC(F)F)ccc21 [Example I-339, 2-[5-Difluoromethoxy-1-(2-dimethylcarbamoyl-ethyl)-1H-indazol-3-yl]-5H-pyrrolo[2,3-b]pyrazine-7-carboxylic acid tert-butylamide]"
295,–,"CC(C)(C)NC(=O)c1c[nH]c2ncc(-c3nn(CC4CN(Cc5ccccc5)CCO4)c4ccc(OC(F)F)cc34)nc12 (centres unmarked) [Example I-340, 2-[1-(4-Benzyl-morpholin-2-ylmethyl)-5-difluoromethoxy-1H-indazol-3-yl]-5H-pyrrolo[2,3-b]pyrazine-7-carboxylic acid tert-butylamide]"
17.2,–,"CN1CCOC(Cn2nc(-c3cnc4[nH]cc(C(=O)NC(C)(C)C)c4n3)c3cc(OC(F)F)ccc32)C1 (centres unmarked) [Example I-342, 2-[5-Difluoromethoxy-1-(4-methyl-morpholin-2-ylmethyl)-1H-indazol-3-yl]-5H-pyrrolo[2,3-b]pyrazine-7-carboxylic acid tert-butylamide]"
37,–,"CC(C)(C)NC(=O)c1c[nH]c2ncc(-c3nn(CCCN4CCC(F)(F)C4)c4ccc(OC(F)F)cc34)nc12 [Example I-343, 2-{5-Difluoromethoxy-1-[3-(3,3-difluoro-pyrrolidin-1-yl)-propyl]-1H-indazol-3-yl}-5H-pyrrolo[2,3-b]pyrazine-7-carboxylic acid tert-butylamide]"
5.12,–,"CNCCCn1nc(-c2cnc3[nH]cc(C(=O)NC(C)(C)C)c3n2)c2cc(OC(F)F)ccc21 [Example I-345, 2-[5-Difluoromethoxy-1-(3-methylamino-propyl)-1H-indazol-3-yl]-5H-pyrrolo[2,3-b]pyrazine-7-carboxylic acid tert-butylamide]"
5.55,–,"CC(=O)N(C)CCCn1nc(-c2cnc3[nH]cc(C(=O)NC(C)(C)C)c3n2)c2cc(OC(F)F)ccc21 [Example I-346, 2-{1-[3-(Acetyl-methyl-amino)-propyl]-5-difluoromethoxy-1H-indazol-3-yl}-5H-pyrrolo[2,3-b]pyrazine-7-carboxylic acid tert-butylamide]"
5.98,–,"CC(C)(C)NC(=O)c1c[nH]c2ncc(-c3nn(CC4CNC4)c4ccc(OC(F)F)cc34)nc12 [Example I-350, 2-(1-Azetidin-3-ylmethyl-5-difluoromethoxy-1H-indazol-3-yl)-5H-pyrrolo[2,3-b]pyrazine-7-carboxylic acid tert-butylamide]"
18.4,–,"CC(C)(C)NC(=O)c1c[nH]c2ncc(-c3nn(CC4CC4)c4ccc(OC(F)F)cc34)nc12 [Example I-351, 2-(1-Cyclopropylmethyl-5-difluoromethoxy-1H-indazol-3-yl)-5H-pyrrolo[2,3-b]pyrazine-7-carboxylic acid tert-butylamide]"
15.9,–,"CC(C)(C)NC(=O)c1c[nH]c2ncc(-c3nn(CC(=O)N4CCN(CC(F)(F)F)CC4)c4ccc(OC(F)F)cc34)nc12 [Example I-352, 2-(5-Difluoromethoxy-1-{2-oxo-2-[4-(2,2,2-trifluoro-ethyl)-piperazin-1-yl]-ethyl}-1H-indazol-3-yl)-5H-pyrrolo[2,3-b]pyrazine-7-carboxylic acid tert-butylamide]"
56.3,–,"CN1CCN(C(=O)Cn2nc(-c3cnc4[nH]cc(C(=O)NC(C)(C)C)c4n3)c3cc(OC(F)F)ccc32)CC1 [Example I-353, 2-{5-Difluoromethoxy-1-[2-(4-methyl-piperazin-1-yl)-2-oxo-ethyl]-1H-indazol-3-yl}-5H-pyrrolo[2,3-b]pyrazine-7-carboxylic acid tert-butylamide]"
14.4,–,"CNC(=O)Cn1nc(-c2cnc3[nH]cc(C(=O)NC(C)(C)C)c3n2)c2cc(OC(F)F)ccc21 [Example I-354, 2-(5-Difluoromethoxy-1-methylcarbamoylmethyl-1H-indazol-3-yl)-5H-pyrrolo[2,3-b]pyrazine-7-carboxylic acid tert-butylamide]"
3.19,–,"CCc1cccc2c(-c3cnc4[nH]cc(C(=O)NC(C)(C)C)c4n3)n[nH]c12 [Example I-355, 2-(7-Ethyl-1H-indazol-3-yl)-5H-pyrrolo[2,3-b]pyrazine-7-carboxylic acid tert-butylamide]"
8.92,–,"CC(C)(C)NC(=O)c1c[nH]c2ncc(-c3ncn4cc(Cl)ccc34)nc12 [Example I-356, 2-(6-Chloro-imidazo[1,5-a]pyridin-1-yl)-5H-pyrrolo[2,3-b]pyrazine-7-carboxylic acid tert-butylamide]"
4.78,–,"CCc1ccc2c(-c3cnc4[nH]cc(C(=O)NC(C)(C)C)c4n3)nn(C)c2c1 [Example I-367, 2-(6-Ethyl-1-methyl-1H-indazol-3-yl)-5H-pyrrolo[2,3-b]pyrazine-7-carboxylic acid tert-butylamide]"
8.95,–,"Cc1ccc2c(-c3cnc4[nH]cc(C(=O)NC(C)(C)CO)c4n3)nn(C)c2c1 [Example I-368, 2-(1,6-Dimethyl-1H-indazol-3-yl)-5H-pyrrolo[2,3-b]pyrazine-7-carboxylic acid (2-hydroxy-1,1-dimethyl-ethyl)-amide]"
8,–,"Cc1cccc2c(-c3cnc4[nH]cc(C(=O)NC(C)(C)C)c4n3)n[nH]c12 [Example I-369, 2-(7-Methyl-1H-indazol-3-yl)-5H-pyrrolo[2,3-b]pyrazine-7-carboxylic acid tert-butylamide]"
41,–,"Cn1nc(-c2cnc3[nH]cc(C(=O)NC(C)(C)C)c3n2)c2ccc(OC(F)(F)F)cc21 [Example I-370, 2-(1-Methyl-6-trifluoromethoxy-1H-indazol-3-yl)-5H-pyrrolo[2,3-b]pyrazine-7-carboxylic acid tert-butylamide]"

# Second part, the compound before the results:
SMILES,IC50 [1] [nM],"IC50 (SYK_ENZYME_FILTRATION/v1, BSA) [nM]"
"CC(C)(C)NC(=O)c1c[nH]c2ncc(-c3nccc4cc[nH]c34)nc12 [Example I-328, 2-(1H-Pyrrolo[2,3-c]pyridin-7-yl)-5H-pyrrolo[2,3-b]pyrazine-7 carboxylic acid tert-butylamide]",970,–
"CC(C)(C)NC(=O)c1c[nH]c2ncc(-n3ncc4ccc(Cl)cc43)nc12 [Example I-329, 2-(6-Chloro-indazol-1-yl)-5H-pyrrolo[2,3-b]pyrazine-7-carboxylic acid tert-butylamide]",82.2,–
"CC(C)(C)NC(=O)c1c[nH]c2ncc(-n3ncc4ccc(C(F)(F)F)cc43)nc12 [Example I-330, 2-(6-Trifluoromethyl-indazol-1-yl)-5H-pyrrolo[2,3-b]pyrazine-7-carboxylic acid tert-butylamide]",988,–
"Cc1ccc2cnn(-c3cnc4[nH]cc(C(=O)NC(C)(C)C)c4n3)c2c1 [Example I-331, 2-(6-Methyl-indazol-1-yl)-5H-pyrrolo[2,3-b]pyrazine-7-carboxylic acid tert-butylamide]",69.5,–
"CC(C)(C)NC(=O)c1c[nH]c2ncc(-n3ncc4ccc(F)cc43)nc12 [Example I-332, 2-(6-Fluoro-indazol-1-yl)-5H-pyrrolo[2,3-b]pyrazine-7-carboxylic acid tert-butylamide]",107,–
"Cc1ccc2c(cnn2-c2cnc3[nH]cc(C(=O)NC(C)(C)C)c3n2)c1 [Example I-333, 2-(5-Methyl-indazol-1-yl)-5H-pyrrolo[2,3-b]pyrazine-7-carboxylic acid tert-butylamide]",63.9,–
"CC(C)(C)NC(=O)c1c[nH]c2ncc(-n3nc(C(F)(F)F)c4c3CCC4)nc12 [Example I-334, 2-(3-Trifluoromethyl-5,6-dihydro-4H-cyclopentapyrazol-1-yl)-5H-pyrrolo[2,3-b]pyrazine-7-carboxylic acid tert-butylamide]",1840,–
"CC(C)(C)NC(=O)c1c[nH]c2ncc(-n3nc(Cl)c4ccccc43)nc12 [Example I-335, 2-(3-Chloro-indazol-1-yl)-5H-pyrrolo[2,3-b]pyrazine-7-carboxylic acid tert-butylamide]",61.6,–
"CC(C)(C)NC(=O)c1c[nH]c2ncc(-n3ncc4cc(C(F)(F)F)ccc43)nc12 [Example I-337, 2-(5-Trifluoromethyl-indazol-1-yl)-5H-pyrrolo[2,3-b]pyrazine-7-carboxylic acid tert-butylamide]",595,–
"COc1nn(-c2cnc3[nH]cc(C(=O)NC(C)(C)CO)c3n2)c2ccccc12 [Example I-344, 2-(3-Methoxy-indazol-1-yl)-5H-pyrrolo[2,3-b]pyrazine-7-carboxylic acid (2-hydroxy-1,1-dimethyl-ethyl)-amide]",8.88,–
"CC(C)(CO)NC(=O)c1c[nH]c2ncc(-n3nc(C4CCNCC4)c4ccccc43)nc12 [Example I-347, 2-(3-Piperidin-4-yl-indazol-1-yl)-5H-pyrrolo[2,3-b]pyrazine-7-carboxylic acid (2-hydroxy-1,1-dimethyl-ethyl)-amide]",–,14.3
"C[C@H](NC(=O)c1c[nH]c2ncc(-c3nn(C)c4cc(F)ccc34)nc12)c1ncc(C(F)(F)F)[nH]1 [Example I-358, 2-(6-Fluoro-1-methyl-1H-indazol-3-yl)-5H-pyrrolo[2,3-b]pyrazine-7-carboxylic acid [(S)-1-(5-trifluoromethyl-1H-imidazol-2-yl)-ethyl]-amide]",107,–
"COC(=O)c1cnc([C@H](C)NC(=O)c2c[nH]c3ncc(-c4nn(C)c5cc(F)ccc45)nc23)[nH]1 [Example I-359, 2-((S)-1-{[2-(6-Fluoro-1-methyl-1H-indazol-3-yl)-5H-pyrrolo[2,3-b]pyrazine-7-carbonyl]-amino}-ethyl)-3H-imidazole-4-carboxylic acid methyl ester]",112,–
"C#CC1CN(C(=O)c2c[nH]c3ncc(-c4nn(C)c5cc(F)ccc45)nc23)C1 [Example I-360, (3-Ethynyl-azetidin-1-yl)-[2-(6-fluoro-1-methyl-1H-indazol-3-yl)-5H-pyrrolo[2,3-b]pyrazin-7-yl]-methanone]",1550,–
"CONC(=O)c1c[nH]c2ncc(-c3nn(C)c4cc(F)ccc34)nc12 [Example I-361, 2-(6-Fluoro-1-methyl-1H-indazol-3-yl)-5H-pyrrolo[2,3-b]pyrazine-7-carboxylic acid methoxy-amide]",214,–
